Test results taken from patent publication US9499530B2 (HANGZHOU MINSHENG INSTITUTES FOR PHARMA RESEARCH, priority 2011, dated 2016).
“Also recorded” adds a separate entry of the source.

Columns and labels:
[1] = target: KDR (Vascular Endothelial Growth Factor Receptor 2) (Homo sapiens, UniProt P35968); assay: ELISA protein tyrosine kinase inhibition, KDR; format: biochemical; conditions: for IC50: ELISA, Poly(Glu, Tyr) 4:1 substrate, ATP 5 μM, test samples at 10-5 mol/l, read-out: KDR inhibitory activity (IC50 class)
Source text: (§1) Determining the Effect of Test Samples at a Concentration of 10-5 Mol/l on the Activity of the Substrate Phosphoryation Catalyzed by EGFR (Epidermal Growth Factor Receptor 1), ErbB-2 (Epidermal Growth Factor Receptor 2), ErbB-4, KDR (Vascular Endothelial Growth Factor Receptor 2) Protein Tyrosine Kinases at Molecular Level
(§2) Enzyme-Linked Immunosorbent Assay (ELISA)
(§3) Main instrument: wavelength-tunable microplate reader (VERSAmax).
(§4) Main reagents: kinase reaction substrate Poly(Glu, Tyr) 4:1 from Sigma; anti-phosphotyrosine monoclonal antibody PY99 from Santa Cruz; horseradish peroxidase-labeled goat anti-mouse IgG from Calbiochem; ATP, DTT, OPD from Amresco, and ELISA plate from Corning.
(§5) Poly(Glu, Tyr)4:1 as an enzyme substrate was diluted by potassium ion-free PBS into 20 μg/ml, and an ELISA plate was coated and subjected to reaction for 12-16 h at 37° C. After the liquid in wells was removed, the plate was washed three time by T-PBS, 5 min for each time. The ELISA plate was then dried in an oven at 37° C. The coated wells were added with the test samples: the test samples were prepared for a stock solution with a concentration of 1×10^−2M in DMSO. The aliquot solution was stored at −20° C., and diluted to the desired concentration with reaction buffer before use. The resulting solution was added into the wells so that the final concentration of 10-5 mol/l in 100 μL reaction system can be obtained. At the same time, a positive control well was set up and a positive control compound Su11248 was added. ATP and test tyrosine kinases were added: ATP solution diluted with reaction buffer was added (the final concentration of ATP is 5 μM). Finally, the test tyrosine kinases solution diluted with reaction buffer was added. The total volume of the reaction system was […]. Meanwhile, a negative control well and a control well without enzyme were set up. The reaction system was placed in a wet box, and shaked for 1 hour at 37° C., shielding from light. After the reaction was complete, the plate was washed by T-PBS three times. Antibody PY99 was added at 100 μL/well; and the plate was shaked for 30 min at 37° C. After the reaction was complete, the plate was washed with T-PBS three times. Horseradish peroxidase-labeled goat anti-mouse IgG was added at 100 μL/well, and the plate was shaked for 30 min at 37° C. The plate was washed with T-PBS three times. OPD developing liquid was added at 100 μL/well, and reacted for 1-10 min at room temperature, shielding from light. 50 μL of 2 M H2SO4 was added to stop the reaction. A492 value was determined using wavelength-tunable microplate reader. The inhibition ratio of the samples can be calculated by the following equation: […]

[2] = test system: human lung cancer A549 xenograft; assay: Growth inhibition of A549 xenograft in nude mice; format: in vivo; conditions: for growth inhibition of human lung cancer A549 compared with positive control lapatinib (in words): xenograft in nude mice, 200 mg/kg
Source text: Objective of the test: Determining the inhibition of some compounds of the present invention to the growth of human lung cancer A549 transplanted into nude mice and the action intensity thereof.
1. Human lung cancer A549 xenograft in nude mice, which was set up by subcutaneously transplantion of the human lung cancer A549 cell lines into right axillary fossa of nude mice. The amount of inoculation is 2×10^6 cells/mouse. Xenograft inoculated into the nude mice was passaged for 3 generations before use.
2. The solvent used in the experiments is: 0.5% of hydroxypropylmethyl cellulose and 0.1% of Tween-80.
3. Vigorous growing tumor tissues were selected to be chopped into approximately 1 mm^3. Under sterile conditions, the tumor tissue blocks were subcutaneously transplanted into right axillary fossa of nude mice. The diameters of the xenograft in nude mice were measured with a vernier caliper. When tumors reached approximately 100-300 mm^3 in size, the animals were randomly divided into groups, wherein there are 12 animals in solvent control group, and 6 animals per group in the other groups. […] The administered dosages were both 200 mg/kg, 5 times per week for consecutive four weeks. The diameters of the tumors were measured twice per week. The negative control group was intragastricly administrated the same amount of solvent. After the experiment, the mice were sacrificed. The tumors were surgically stripped and weighed. The tumor volume (TV) was calculated by the following equation:
[formula] in which a and b represents for the length and the width respectively.
According to the measured results, the relative tumor volume (RTV) was calculated. The calculation equation was: RTV=Vt/V0, wherein V0 is the tumor volume measured during cage administration (i.e. d0), Vt is the tumor volume of each measurement. The evaluation index of anti-tumor activity was the relative tumor growth ratio T/C (%), which was calculated by the following equation: […]
TRTV: treatment group's RTV; CRTV: negative control group's RTV.

[3] = target: ErbB-2 (Epidermal Growth Factor Receptor 2) (Homo sapiens, UniProt P04626); assay: ELISA protein tyrosine kinase inhibition, ErbB-2; format: biochemical; conditions: Poly(Glu, Tyr) 4:1 substrate, ATP 5 μM, test samples at 10-5 mol/l, read-out: ErbB2 inhibitory activity (IC50 class)
Source text: as §1, §2, §3, §4, §5

[4] = target: EGFR (Epidermal Growth Factor Receptor 1) (Homo sapiens, UniProt P00533); assay: ELISA protein tyrosine kinase inhibition, EGFR; format: biochemical; conditions: for IC50: ELISA, Poly(Glu, Tyr) 4:1 substrate, ATP 5 μM, test samples at 10-5 mol/l, read-out: EGFR inhibitory activity (IC50 class)
Source text: as §1, §2, §3, §4, §5

ErbB-4 = ErbB-4 (Homo sapiens, UniProt Q15303); assay: ELISA protein tyrosine kinase inhibition, ErbB-4; format: biochemical; conditions: for IC50: ELISA, Poly(Glu, Tyr) 4:1 substrate, ATP 5 μM, test samples at 10-5 mol/l, read-out: ErbB4 inhibitory activity (IC50 class)
Source text: as §1, §2, §3, §4, §5

Chain of KDR (Vascular Endothelial Growth Factor Receptor 2) (P35968 20-1356): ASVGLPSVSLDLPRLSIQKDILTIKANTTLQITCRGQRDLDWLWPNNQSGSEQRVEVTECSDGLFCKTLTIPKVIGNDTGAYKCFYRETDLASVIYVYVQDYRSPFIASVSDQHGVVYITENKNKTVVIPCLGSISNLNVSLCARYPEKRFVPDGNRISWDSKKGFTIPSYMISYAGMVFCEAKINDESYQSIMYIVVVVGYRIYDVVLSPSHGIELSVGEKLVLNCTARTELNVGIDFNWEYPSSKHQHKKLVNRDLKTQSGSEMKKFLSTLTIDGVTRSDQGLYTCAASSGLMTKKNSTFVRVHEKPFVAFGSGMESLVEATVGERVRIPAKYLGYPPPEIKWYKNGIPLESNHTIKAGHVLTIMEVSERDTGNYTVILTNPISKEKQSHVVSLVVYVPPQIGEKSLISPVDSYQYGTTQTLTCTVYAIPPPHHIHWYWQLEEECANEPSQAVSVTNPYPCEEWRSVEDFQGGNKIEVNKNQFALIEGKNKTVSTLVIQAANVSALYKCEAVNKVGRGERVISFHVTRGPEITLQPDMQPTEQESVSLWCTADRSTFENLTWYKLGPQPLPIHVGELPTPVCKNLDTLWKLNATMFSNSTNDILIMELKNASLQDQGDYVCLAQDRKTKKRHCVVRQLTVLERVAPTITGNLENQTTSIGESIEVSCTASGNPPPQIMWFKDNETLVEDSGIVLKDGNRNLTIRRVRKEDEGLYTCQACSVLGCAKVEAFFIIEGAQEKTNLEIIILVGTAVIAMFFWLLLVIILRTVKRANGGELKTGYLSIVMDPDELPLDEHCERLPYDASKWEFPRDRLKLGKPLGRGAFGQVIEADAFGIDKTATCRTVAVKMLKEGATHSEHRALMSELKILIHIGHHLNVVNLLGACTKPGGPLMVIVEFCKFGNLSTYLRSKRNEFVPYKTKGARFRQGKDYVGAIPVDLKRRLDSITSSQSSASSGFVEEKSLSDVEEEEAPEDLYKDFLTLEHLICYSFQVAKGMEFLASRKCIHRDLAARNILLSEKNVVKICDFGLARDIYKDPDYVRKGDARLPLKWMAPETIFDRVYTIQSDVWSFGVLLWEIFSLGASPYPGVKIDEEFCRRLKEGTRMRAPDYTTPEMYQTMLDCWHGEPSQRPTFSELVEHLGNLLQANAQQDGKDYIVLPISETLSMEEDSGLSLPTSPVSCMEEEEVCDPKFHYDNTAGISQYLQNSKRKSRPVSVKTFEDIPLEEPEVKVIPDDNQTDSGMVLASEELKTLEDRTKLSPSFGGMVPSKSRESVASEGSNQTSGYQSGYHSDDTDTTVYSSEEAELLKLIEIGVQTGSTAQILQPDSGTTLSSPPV
Chain of ErbB-4 (Q15303 26-1308): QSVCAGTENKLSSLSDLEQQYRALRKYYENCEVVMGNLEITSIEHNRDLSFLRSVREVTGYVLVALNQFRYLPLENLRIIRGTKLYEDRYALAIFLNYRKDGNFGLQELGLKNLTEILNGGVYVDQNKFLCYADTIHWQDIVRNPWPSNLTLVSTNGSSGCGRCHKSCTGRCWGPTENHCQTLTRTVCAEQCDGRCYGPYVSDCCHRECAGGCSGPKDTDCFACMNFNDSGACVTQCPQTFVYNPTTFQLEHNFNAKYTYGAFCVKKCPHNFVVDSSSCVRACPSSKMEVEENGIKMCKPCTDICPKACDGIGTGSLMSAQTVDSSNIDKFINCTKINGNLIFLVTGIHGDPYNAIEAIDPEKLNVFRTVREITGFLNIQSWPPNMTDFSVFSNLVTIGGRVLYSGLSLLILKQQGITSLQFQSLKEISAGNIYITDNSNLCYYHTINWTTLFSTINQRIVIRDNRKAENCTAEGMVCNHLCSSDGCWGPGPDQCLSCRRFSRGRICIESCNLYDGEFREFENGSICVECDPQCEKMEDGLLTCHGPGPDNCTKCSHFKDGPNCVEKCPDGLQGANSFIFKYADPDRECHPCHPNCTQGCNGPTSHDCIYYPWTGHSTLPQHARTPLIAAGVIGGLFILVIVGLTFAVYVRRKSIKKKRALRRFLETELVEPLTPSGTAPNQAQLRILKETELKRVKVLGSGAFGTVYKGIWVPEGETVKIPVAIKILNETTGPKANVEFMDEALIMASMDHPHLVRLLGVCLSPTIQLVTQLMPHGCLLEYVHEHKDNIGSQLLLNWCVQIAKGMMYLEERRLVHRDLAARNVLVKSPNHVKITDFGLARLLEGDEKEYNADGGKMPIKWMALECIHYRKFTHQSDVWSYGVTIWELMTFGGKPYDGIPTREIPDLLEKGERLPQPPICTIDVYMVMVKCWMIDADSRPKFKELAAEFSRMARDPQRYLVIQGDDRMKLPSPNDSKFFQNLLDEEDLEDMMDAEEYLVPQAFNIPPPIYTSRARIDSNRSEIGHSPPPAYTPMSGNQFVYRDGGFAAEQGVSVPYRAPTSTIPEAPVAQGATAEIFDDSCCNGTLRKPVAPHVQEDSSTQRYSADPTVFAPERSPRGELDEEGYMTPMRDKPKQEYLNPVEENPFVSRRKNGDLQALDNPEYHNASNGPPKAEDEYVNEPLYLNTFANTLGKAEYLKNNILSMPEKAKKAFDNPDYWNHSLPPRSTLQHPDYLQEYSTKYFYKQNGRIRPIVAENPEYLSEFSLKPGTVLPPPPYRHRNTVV

OCCN(CCO)Cc1ccc(-c2ccc3ncnc(Nc4ccc(OCc5cccc(F)c5)c(Cl)c4)c3c2)o1 [MS18, N-(3-chloro-4-((3-fluorobenzyl)oxy)phenyl)-6-(5-((bis(2-hydroxyethyl)amino)methyl)-2-furyl)-4-quinazolinamine]
inhibitory activity against KDR (in words) [1]: better inhibitory activity; also recorded: higher inhibitory activity

CCCNCc1ccc(-c2ccc3ncnc(Nc4ccc(F)c(Cl)c4)c3c2)o1 [MS 36, N-(3-chloro-4-fluorophenyl)-6-(5-(((propyl)amino)methyl)-2-furyl)-4-quinazolinamine]
IC50 [1]: > 10 µM
TV (mm^3) End ([2]; A549 xenograft, 200 mg/kg intragastric, 5 times per week for four weeks, end): 770.3 ± 212.8^▴ mm^3
TV (mm^3) Start ([2]; A549 xenograft, 200 mg/kg intragastric, start of dosing): 155.5 ± 72.8 mm^3
T/C (%) ([2]; A549 xenograft, relative tumor growth ratio, 200 mg/kg intragastric, 5 times per week for four weeks): 36.1%
Weight (g) End ([2]; nude mice with A549 xenograft, 200 mg/kg intragastric, 5 times per week for four weeks, end): 25.0 ± 1.8 g
Weight (g) Start ([2]; nude mice with A549 xenograft, 200 mg/kg intragastric, start of dosing): 24.5 ± 1.8 g
growth inhibition of human lung cancer A549 compared with positive control lapatinib (in words) [2]: better growth inhibition effect
IC50 [3]: < 10 µM

Fc1cccc(COc2ccc(Nc3ncnc4ccc(-c5ccc(CNCC6CCCC(Cl)C6)o5)cc34)cc2Cl)c1 (stereo not drawn) [MS 9, N-(3-chloro-4-((3-fluorobenzyl)oxy)phenyl)-6-(5-((((3-chlorocyclohexyl)methyl)amino)methyl)-2-furyl)-4-quinazolinamine]
IC50 [1]: < 10 µM
IC50 [3]: > 10 µM
IC50 [4]: < 10 µM

OCCNCc1ccc(-c2ccc3ncnc(Nc4ccc(OCc5cccc(F)c5)c(Cl)c4)c3c2)o1 [MS27, N-(3-chloro-4-((3-fluorobenzyl)oxy)phenyl)-6-(5-(((2-hydroxyethyl)amino)methyl)-2-furyl)-4-quinazolinamine]
inhibitory activity against KDR (in words) [1]: better inhibitory activity; also recorded: higher inhibitory activity
growth inhibition of human lung cancer A549 compared with positive control lapatinib (in words) [2]: better effective inhibition; also recorded: better growth inhibition effect

OCCCCNCc1ccc(-c2ccc3ncnc(Nc4ccc(OCc5cccc(F)c5)c(Cl)c4)c3c2)o1 [MS1, N-(3-chloro-4-((3-fluorobenzyl)oxy)phenyl)-6-(5-(((4-hydroxybutyl)amino)methyl)-2-furyl)-4-quinazolinamine]
inhibitory activity against KDR (in words) [1]: better inhibitory activity; also recorded: higher inhibitory activity

Fc1cccc(COc2ccc(Nc3ncnc4ccc(-c5ccc(CNCC6CCCCC6)o5)cc34)cc2Cl)c1 [MS 7, N-(3-chloro-4-((3-fluorobenzyl)oxy)phenyl)-6-((5-((cyclohexylmethyl)amino)methyl)-2-furyl)-4-quinazolinamine]
IC50 [1]: < 10 µM
IC50 [3]: > 10 µM
IC50 [4]: < 10 µM

OCCCNCc1ccc(-c2ccc3ncnc(Nc4ccc(OCc5cccc(F)c5)c(Cl)c4)c3c2)o1 [MS42·di-p-toluenesulfonate, N-(3-chloro-4-((3-fluorobenzyl)oxy)phenyl)-6-(5-(((3-hydroxypropyl)amino)methyl)-2-furyl)-4-quinazolinamine]
IC50 (ErbB-4): < 10 µM
IC50 [1]: < 10 µM
IC50 [3]: < 10 µM
IC50 [4]: < 10 µM

OCCCCNCc1ccc(-c2ccc3ncnc(Nc4ccc(OCc5cccc(F)c5)c(Cl)c4)c3c2)o1 [MS1·dimethanesulfonate, N-(3-chloro-4-((3-fluorobenzyl)oxy)phenyl)-6-(5-(((4-hydroxybutyl)amino)methyl)-2-furyl)-4-quinazolinamine]
IC50 (ErbB-4): < 10 µM
IC50 [1]: < 10 µM
IC50 [3]: < 10 µM
IC50 [4]: < 10 µM

N-(3-chloro-4-((3-fluorobenzyl)oxy)phenyl)-6-(5-((4-methylpiperazinyl)methyl)-2-pyrrolidinyl)-4-quinazolinamine [MS 34]
inhibition of c-ErbB4/HER4 (in words) (ErbB-4): very good inhibition
IC50 (ErbB-4): < 10 µM
IC50 [3]: < 10 µM
inhibitory activity against EGFR (in words) [4]: better inhibitory activity
IC50 [4]: < 10 µM

CC=CCNCc1ccc(-c2ccc3ncnc(Nc4ccc(F)c(Cl)c4)c3c2)o1 [MS 39, N-(3-chloro-4-fluorophenyl)-6-(5-(((2-butenyl)amino)methyl)-2-furyl)-4-quinazolinamine]
IC50 [1]: > 10 µM
IC50 [3]: < 10 µM

OCC(CO)NCc1ccc(-c2ccc3ncnc(Nc4ccc(OCc5cccc(F)c5)c(Cl)c4)c3c2)o1 [MS6, N-(3-chloro-4-((3-fluorobenzyl)oxy)phenyl)-6-(5-((2-(1,3-dihydroxypropyl)amino)methyl)-2-furyl)-4-quinazolinamine]
inhibitory activity against KDR (in words) [1]: better inhibitory activity; also recorded: higher inhibitory activity
growth inhibition of human lung cancer A549 compared with positive control lapatinib (in words) [2]: better effective inhibition; also recorded: better growth inhibition effect

CSCCC(NCc1ccc(-c2ccc3ncnc(Nc4ccc(OCc5cccc(F)c5)c(Cl)c4)c3c2)o1)C(=O)O (stereo not drawn) [MS 26, N-(3-chloro-4-((3-fluorobenzyl)oxy)phenyl)-6-(5-((((1-carboxy-3-methylthio)propyl)amino)methyl)-2-furyl)-4-quinazolinamine]
growth inhibition of human lung cancer A549 compared with positive control lapatinib (in words) [2]: better effective inhibition
IC50 [3]: < 10 µM
IC50 [4]: < 10 µM

OCC(O)CNCc1ccc(-c2ccc3ncnc(Nc4ccc(OCc5cccc(F)c5)c(Cl)c4)c3c2)o1 (stereo not drawn) [MS31, N-(3-chloro-4-((3-fluorobenzyl)oxy)phenyl)-6-(5-(1-(2,3-dihydroxypropyl)amino)methyl-2-furyl)-4-quinazolinamine]
inhibitory activity against KDR (in words) [1]: better inhibitory activity; also recorded: higher inhibitory activity

Fc1cccc(COc2ccc(Nc3ncnc4ccc(-c5ccc(CNCCc6cccc(Cl)c6)o5)cc34)cc2Cl)c1 [MS 20, N-(3-chloro-4-((3-fluorobenzyl)oxy)phenyl)-6-(5-(((2-(3-chlorophenyl)ethyl)amino)methyl)-2-furyl)-4-quinazolinamine]
IC50 [1]: > 10 µM
IC50 [3]: < 10 µM
IC50 [4]: < 10 µM

OCCCNCc1ccc(-c2ccc3ncnc(Nc4ccc(OCc5cccc(F)c5)c(Cl)c4)c3c2)o1 [MS42]
inhibitory activity against KDR (in words) [1]: better inhibitory activity; also recorded: higher inhibitory activity

Fc1ccc(Nc2ncnc3ccc(-c4ccc(CNCCC5=CCCCC5)o4)cc23)cc1Cl [MS41, N-(3-chloro-4-fluorophenyl)-6-(5-(((2-(cyclohexenyl)ethyl)amino)methyl)-2-furyl)-4-quinazolinamine]
IC50 [1]: > 10 µM
IC50 [3]: < 10 µM
